Measurements reported in PubChem BioAssay AID1794820.

Target: Na(+)/dicarboxylate cotransporter 3 (Homo sapiens) (UniProt Q8WWT9)
Assay: SLC13A3 dicarboxylate substrate-evoked depolarization, dose response, membrane potential dye, HEK-293 overexpressing cells (AID 1794820)
Settings: HEK-293 SLC13A3 OE, FLIPR membrane potential dye

Chain of Na(+)/dicarboxylate cotransporter 3 (Homo sapiens) (Q8WWT9 whole entry, looked up): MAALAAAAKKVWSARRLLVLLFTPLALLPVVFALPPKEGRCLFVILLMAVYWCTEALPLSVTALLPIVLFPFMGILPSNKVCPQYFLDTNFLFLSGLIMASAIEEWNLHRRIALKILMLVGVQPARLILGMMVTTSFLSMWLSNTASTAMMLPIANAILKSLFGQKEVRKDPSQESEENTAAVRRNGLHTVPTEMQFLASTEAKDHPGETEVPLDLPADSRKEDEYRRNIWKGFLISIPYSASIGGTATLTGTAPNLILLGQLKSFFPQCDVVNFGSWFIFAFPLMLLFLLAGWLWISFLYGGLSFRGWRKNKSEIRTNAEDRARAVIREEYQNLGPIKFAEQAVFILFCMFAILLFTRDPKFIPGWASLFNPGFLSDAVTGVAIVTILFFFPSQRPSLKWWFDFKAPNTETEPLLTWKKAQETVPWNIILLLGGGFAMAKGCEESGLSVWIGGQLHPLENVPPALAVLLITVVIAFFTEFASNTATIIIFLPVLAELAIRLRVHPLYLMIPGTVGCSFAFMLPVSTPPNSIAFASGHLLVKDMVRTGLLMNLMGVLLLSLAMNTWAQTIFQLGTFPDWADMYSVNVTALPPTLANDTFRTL

| EC50 [µM] | SMILES |
| --- | --- |
| 54 | O=C(O)CCC(=O)C(=O)O |
| 107 | O=C(O)CCC(=O)O |
